Test results from a melting point compilation (Tetko et al.; mined from patent text by program, amines drawn as free bases though some values may be those of a salt).

SMILES | melting point
Cc1cc2oc(=O)c3c(c2cc1NC(=O)c1ccccc1)CCN(CCN1CC2CCC(CC2)C1)C3 | 174 to 176 °C
CSc1nc(N2CCc3ccccc3CC2)c(C#N)c2nncn12 | > 200 °C
NCC1Cc2cc(-c3ccccc3)cc(-c3ccccc3Cl)c2O1 (configuration not stated) | > 250 °C
CC(C)(C)NS(=O)(=O)c1cccc(F)n1 | 88 to 90 °C
O=Cc1cc(-c2ccc(O)c(O)c2)c2cc(O)c(O)cc2c1O | > 300 °C
CCOCN1C(C)=C(C(=O)OC)[C@H](c2cccc([N+](=O)[O-])c2)C(C(=O)OCOC(=O)C(C)(C)C)=C1C | 81 to 82 °C
CC(=O)c1ccccc1NC(=O)Cc1ccccc1 | 78 °C
Cc1nnc2n1-c1sc(Cl)cc1C(c1ccccc1F)=NC2 | 187 to 189 °C
CCOC(=O)C1=Cc2cccc(S(N)(=O)=O)c2OCC1 | 197 to 198 °C
O=C(Nc1ccc(Cl)c(C(F)(F)F)c1)Nc1ccc(-c2ccc(C(F)(F)F)cc2)cc1-c1nnn[nH]1 | 226 to 228 °C
Cc1ccccc1-c1nc(NCCN(C)C)ncc1N(C)C(=O)C(C)(C)c1cc(C(F)(F)F)cc(C(F)(F)F)c1 | 143 to 144 °C
Cc1ccc(C2C(=O)NC(=O)NC2=O)cc1 | 271 °C
O=Cc1csc(NC(=O)OCC(Cl)(Cl)Cl)n1 | 188 to 190 °C
CCOC(=O)CC(O)c1ccc(-c2ccc([N+](=O)[O-])cc2)o1 (configuration not stated) | 79 to 81 °C
CCOC(=O)c1cn2c3c(ccc(OC)c3c1=O)OCC2C (configuration not stated) | 165 to 168 °C
NC(=S)Nc1cc2ccccc2cn1 | 225 to 227 °C
CCc1ccc2c(c1)C=Cc1cc(C)ccc1C2c1cn(-c2ccnc(NCC(=O)Nc3nc(CC(=O)O)cs3)n2)c(=O)[nH]c1=O (configuration not stated) | 217 °C
O=C1CCC(N2CCC(n3c(=O)[nH]c4ccccc43)CC2)CC1 | 221 to 223 °C
O=C(O)CC1(C(=O)O)CCOc2ccc(C(=O)O)cc21 (configuration not stated) | 198 to 200 °C
CC(=O)NC(Cc1csc2ccccc12)C(=O)CCc1cc(C(F)(F)F)cc(C(F)(F)F)c1 (configuration not stated) | 83 to 84 °C
CCCn1nc(C(C)C)c(C(=O)OCOC(C)=O)c1Cc1ccc(-c2ccccc2-c2nnn[nH]2)cc1 | 58 to 63 °C
COc1ccc(-c2ccnc3c(C(=O)c4cccs4)cnn23)cc1NC(=O)CC(C)C | 192 to 194 °C
CCNC(=O)n1nc(Oc2ncc(C(F)(F)F)cc2Cl)c(CC)c1C | 101 to 102 °C
CCOC(=O)CCc1cn(Cc2ccc(OCc3nc(-c4ccccc4)oc3C)cc2)nc1-c1ccc(F)cc1 | 93 to 94 °C
COc1ccc(-c2coc3ccc(-c4nnc(S)o4)cc23)cc1 | 204 to 205 °C

SMILES | melting point
C=CC(CC(O)C(CC1CCCCC1)NC(=O)C(Cc1c[nH]cn1)NC(=O)C(Cc1ccccc1)Cc1ccccc1)C(C)C (configuration not stated) | 98 °C
COc1ccc2c(ccc3c4ccc(OC)cc4c(=O)n(-c4ccc(O[Si](C)(C)C(C)(C)C)cc4)c23)c1 | 211 to 213 °C
COCCn1cc(C(=O)N2CCC(c3cc(CNC(=O)C(F)(F)F)ccc3F)CC2)c2c(-c3ccncc3)cccc21 | 152 to 155 °C
COC(=O)Nc1nc2ccc(Sc3ccccc3)cn2c1CN(C)C | 172 to 175 °C
CCCCCCCCNC(=O)C(C)=Cc1cccc(N2CC(C(=O)O)CC2=O)c1 (configuration not stated) | 120 to 121 °C
CCOC(=O)c1c(N)nc(C)c(NC(C)=O)c1C | 168 to 170 °C
O=C(O)C1Nc2ccccc2-c2c([N+](=O)[O-])cnn21 (configuration not stated) | 203 to 205 °C
CCC(=O)N1CCC(NC(=O)Nc2ccc(Br)cc2)CC1 | 233 to 239 °C
COc1ccc(C=CC=C(C#N)C#N)cc1 | 160 °C
CC(C)(C)c1cc(SCC(=O)Nc2c(Cl)cccc2Cl)cc(C(C)(C)C)c1O | 168 to 170 °C
Cn1nnc2c1C(=O)C(Cl)=C(Cl)C2=O | 254 to 255 °C
CCCCCS(=O)(=O)NC(=O)c1ccc2nc(C)n(Cc3ccc(N(C)CC)cc3Cl)c2n1 | 148 to 149 °C
CC(C)N(CCOc1ccc(-c2nnc(CSCCOc3ccccc3)o2)cc1)C(C)C | 42 to 45 °C
CCC1C(=O)Nc2c(C(=O)c3ccc(Cl)cc3)cccc21 (configuration not stated) | 140 to 145 °C
COc1ccc2cc(-c3cnc(-c4ccccc4)o3)ccc2c1 | 149 to 151 °C
O=C(/C=C/c1cccc([N+](=O)[O-])c1)N1CCN(C(=O)c2cc(C(F)(F)F)cc(C(F)(F)F)c2)[C@H](Cc2c[nH]c3ccccc23)C1 | 127 to 133 °C
c1ccc(-c2ccc3c(CCN4CCCCC4)c(-c4ccccc4)[nH]c3c2)cc1 | 129 to 131 °C
CCOC(=O)c1ccc(CN2CCN(c3cc(-c4ccccc4)c4ccc(=O)ccn34)CC2)cc1 | 129 °C
CCOC(=O)C(NC(=O)CSC)C(=O)OCC | 56 to 58 °C
O=C(Oc1cc(F)ccc1[N+](=O)[O-])c1cc2ccccc2oc1=O | 219 to 223 °C
COc1c(Cl)cc(C(C)(C)N2CC(C)=C(c3ccccc3)C2=O)cc1Cl | 136 to 139 °C
CN1CCc2cc(C=O)sc2C(c2ccccc2)C1 (configuration not stated) | 88 °C
CC(C)(C)C(=O)Nc1ccc(F)c(Oc2ccc(C3CC(=O)NC(=O)C3)cc2)c1F | 172 °C
N#Cc1cccnc1N1CCc2ccccc2CC1 | 110 to 112 °C
CCCCCCCCN(C(=O)Nc1ccc(C(=O)O)cc1)c1ccc2c(c1)C(C)(C)CCC2(C)C | 166 to 167 °C

SMILES | melting point
C=CCC(NC(=O)CC)C(=O)O (configuration not stated) | 96 to 98 °C
COC(=O)c1ccccc1S(=O)(=O)Nn1c(SC)nn(-c2nc(OC)cc(OC)n2)c1=O | 179 °C
OCc1cc(OCc2ccccc2)nn1C1CCCCC1 | 195 to 196 °C
Cc1cc(Nc2ccnc(Nc3ccc(S(=O)(=O)N(CCN)C4CCNCC4)cc3)n2)ccc1F | 134 to 135 °C
CNC(=S)Nc1ccccc1N1CCOCC1 | 115 to 116 °C
Cc1ccc(-c2ccc(C(=O)N3Cc4cccn4Cc4ccccc43)cc2)c2ccccc12 | 160 to 162 °C
O=C(O)c1cn(C2CC2)c2nc3cc(N4CCNC(c5cccs5)C4)c(F)cc3cc2c1=O (racemic) | 245 °C
ClCc1ccc2oc(-c3cccs3)nc2c1 | 152 to 153 °C
Nc1nc2[nH]c(CCCCc3ccc(C(=O)N[C@@H](CCC(=O)O)C(=O)O)s3)cc2c(=O)[nH]1 | 179 to 180 °C
COc1cc(NC(=C(C#N)S(C)(=O)=O)C(C)C)cc(OC)c1 | 135 to 136 °C
COC(=O)CCSCC(=O)c1ccc2[nH]c(=O)[nH]c2c1 | 185 to 187 °C
CCc1nc2c(C)cc(C)nc2n1Cc1ccc(C(c2ccccc2)C(Br)C(=O)O)cc1 (configuration not stated) | 117 to 126 °C
CS(=O)(=O)OCCC(c1ccccc1)c1ccccc1 | 83 to 85 °C
COC(=O)Cc1ccc(OCCNC(=O)C2Cc3ccccc3N2S(=O)(=O)c2ccc(-c3cc(Cl)ccc3Cl)cc2)cc1 (configuration not stated) | 61 to 65 °C
CCOc1nn(Cc2ccc(OCc3ccc4ccccc4n3)nc2)cc1CCC(=O)O | 133 to 134 °C
O=C(c1ccc(O)cc1)c1ccon1 | 125 to 127 °C
CCOC(=O)C1CC2C(=O)N=C(C(C)C)C=C2S1=N (configuration not stated) | 182 to 183 °C
C=CCN(CC=C)C(=O)n1cnc(S(=O)(=O)CC)n1 | 39 to 42 °C
Nc1cccc(-c2cccc3c2/C(=C/c2ccc[nH]2)C(=O)N3)c1 | 92 to 94 °C
Clc1cc(N2CCN(CCOc3ccc(Br)cc3)CC2)c(Cl)nn1 | 124 to 126 °C
COC(=O)c1sc(CBr)cc1NC(=O)Nc1ccc(C)cc1 | 157 to 158 °C
O=C(O)c1cccn2c(-c3ccc(F)cc3)cnc12 | > 400 °C
CC1(C)C(=O)OC2=C1CC(OS(C)(=O)=O)C=C2 (configuration not stated) | 120 to 121 °C
CCc1nn(C)c(NC(=O)Cc2ccc(Br)cc2)c1Cl | 167 to 168 °C
COc1cc([N+](=O)[O-])c(Cl)cc1NC(=O)C1CCNCC1 | 167 to 170 °C

SMILES | melting point
COc1ccc(N(C(=O)OC(C)(C)C)S(=O)(=O)c2ccc(F)cc2)cc1OC | 99 to 102 °C
CN(CC(O)CO)C(=O)c1c(I)c(C#N)c(I)c(C(=O)NCC(O)CO)c1I (configuration not stated) | 215 °C
CCOC(=O)Cc1ccc(-n2cc(F)cn2)cc1 | 83.5 to 84.5 °C
CC(C)[C@H]1CC[C@H](C(=O)CO)CC1 | 43 to 44 °C
CCOC(=O)c1c(C)nn2ccc3c(c12)CCO3 | 173 to 174 °C
C=Cc1c(N)cc(-c2ccc(Cl)c(OC)c2F)nc1C(=O)O | 209 to 211 °C
CNC(=C[N+](=O)[O-])NCc1ccc(Cl)nc1Cl | 211 to 213 °C
COc1cc(OCn2nnc3ccccc32)c(C=O)cc1-c1cccs1 | 137 to 138 °C
COc1cc(OC)nc(OC(C(=O)O)C2c3ccccc3CC2C)n1 (configuration not stated) | 148 to 151 °C
COc1ccc(C(=O)Nc2cccnc2)cc1Nc1cccc(C(F)(F)F)c1 | 184 to 185 °C
COc1cc(NC(=O)Nc2ccc(C3CCN(C(=O)Nc4ccc(OCC(O)CO)cc4Cl)CC3)cc2)cc(OC)c1 (configuration not stated) | 105 to 108 °C
Cn1nnnc1CC(=O)c1ccccc1N | 128 to 132 °C
CC12Nc3ccccc3N1C(=O)c1ccccc12 (configuration not stated) | 182 °C
O=C(O)c1ccc(C(=O)NS(=O)(=O)c2ccc(Cl)cc2)cc1 | 285 to 287 °C
Cc1ccc(NC(=O)c2cccc(N3CCOCC3)c2)cc1N | 192 to 193 °C
O=S1(=O)c2cccc3cccc(c23)N1CCCN1CCN(c2ccc(Br)cc2)CC1 | 149 °C
COCc1ccc(C[C@@H]2O[C@H](COC(C)=O)[C@@H](OC(C)=O)[C@H](OC(C)=O)[C@H]2OC(C)=O)cc1 | 120 to 122 °C
COC(=O)C1=C(O)c2ccc3ccccc3c2S(=O)(=O)N1C | 229 to 230 °C
CC12CCC(Oc3c(F)c(F)c(C(F)(F)F)c(F)c3F)=CC1=CCC1C2CCC2(C)C(OS(=O)(=O)C(F)(F)F)=CCC12 (configuration not stated) | 106 to 107 °C
O=c1[nH]c2ccc(I)cc2cc1[N+](=O)[O-] | 279 to 282 °C
CCCCCc1scc(C(=O)OC)c1NC1=CC(=O)N(CCC)C1 | > 285 °C
CCCCCCCCc1ccc(CCC(CO)(CO)NC(C)=O)cc1 | 66 to 68 °C
